Measurements: PubChem BioAssay (NCI)
“And” between values parts separate entries of the source, which are not always exact repeats. Equal values may be shown once.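 Method: 48-hour compound exposure of cells in 96-well plates, five concentrations, linear interpolation of endpoints. At the GI50, growth is halved. TGI is the concentration that stops growth completely.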

Legend:
Assay in all cases: DTP human tumour cell line panel, 48 h
U251 CNS = tested on: U251 CNS
OVCAR-4 ovarian = tested on: OVCAR-4 ovarian
SN12C renal = tested on: SN12C renal
K-562 leukemia = tested on: K-562 leukemia
HCT-15 colon = tested on: HCT-15 colon
SK-MEL-5 melanoma = tested on: SK-MEL-5 melanoma
HOP-92 NSCLC = tested on: HOP-92 NSCLC
HOP-62 NSCLC = tested on: HOP-62 NSCLC
MDA-MB-231 breast = tested on: MDA-MB-231 breast
LOX IMVI melanoma = tested on: LOX IMVI melanoma

## N[C@@H](Cc1ccc(N(CCCl)CCCl)cc1)C(=O)O
U251 CNS
  GI50: 16.1 µM and 11.9 µM
  TGI: > 100 µM and 31.7 µM and 121 µM
OVCAR-4 ovarian
  GI50: 32.1 µM and 18.6 µM
  TGI: > 100 µM and 48.2 µM and 84.3 µM
SN12C renal
  GI50: 3.73 µM and 9.39 µM
  TGI: > 100 µM and > 68.3 µM and 161 µM
K-562 leukemia
  GI50: 37.8 µM
  TGI: 190 µM
HCT-15 colon
  GI50: 19.4 µM and 21 µM
  TGI: > 100 µM and 54.9 µM and 133 µM
SK-MEL-5 melanoma
  GI50: 27 µM and 18.4 µM
  TGI: > 100 µM and 40 µM and 88 µM
HOP-92 NSCLC
  GI50: 11.9 µM and 15 µM
  TGI: 52.3 µM and 42 µM and 103 µM
HOP-62 NSCLC
  GI50: 28.7 µM and 4.34 µM
MDA-MB-231 breast
  GI50: > 100 µM
  TGI: > 100 µM and 134 µM
LOX IMVI melanoma
  GI50: 6.5 µM and 11.9 µM
  TGI: > 100 µM and 57.2 µM and 96.3 µM

## Nc1c2c(c(O)c3c1=C(CO)C=N3)=NCCS2=O (stereo not drawn)
U251 CNS
  GI50: 1.78 µM
  TGI: 3.26 µM
OVCAR-4 ovarian
  GI50: 0.312 µM
  TGI: 1.22 µM
SN12C renal
  GI50: 1.66 µM
  TGI: 3.57 µM
K-562 leukemia
  GI50: 2.81 µM
  TGI: 8.07 µM
HCT-15 colon
  GI50: 2.99 µM
  TGI: 10.6 µM
SK-MEL-5 melanoma
  GI50: 1.13 µM
  TGI: 2.36 µM
HOP-92 NSCLC
  GI50: 2.67 µM
  TGI: 5.46 µM
HOP-62 NSCLC
  GI50: 1.86 µM
  TGI: 3.38 µM
MDA-MB-231 breast
  GI50: 2.82 µM
  TGI: 9.69 µM
LOX IMVI melanoma
  GI50: 1.58 µM
  TGI: 4.03 µM

## CCCCCCCCCCCC(=O)[O][Sn]([CH2]CCC)([CH2]CCC)[CH2]CCC
U251 CNS
  GI50: 0.0442 µM
  TGI: 0.125 µM
OVCAR-4 ovarian
  GI50: < 0.0212 µM
  TGI: 0.153 µM
SN12C renal
  GI50: 0.0767 µM
  TGI: 0.221 µM
K-562 leukemia
  GI50: 0.0364 µM
  TGI: 0.286 µM
HCT-15 colon
  GI50: 0.0456 µM
  TGI: 0.168 µM
SK-MEL-5 melanoma
  GI50: 0.0302 µM
  TGI: 0.0786 µM
HOP-92 NSCLC
  GI50: 0.0119 µM
  TGI: 0.0728 µM
HOP-62 NSCLC
  GI50: 0.0795 µM
  TGI: 0.232 µM
MDA-MB-231 breast
  GI50: 0.0317 µM
  TGI: 0.113 µM
LOX IMVI melanoma
  GI50: 0.0259 µM
  TGI: 0.0712 µM

## O=C1/C=C/[C@@H](O)[C@@H]2C[C@@H](O)C[C@H]2/C=C/CCCCO1
U251 CNS
  GI50: 0.408 µM
  TGI: > 100 µM
OVCAR-4 ovarian
  GI50: 0.47 µM
  TGI: > 100 µM
SN12C renal
  GI50: 0.954 µM
  TGI: > 100 µM
K-562 leukemia
  GI50: 2.02 µM
  TGI: > 100 µM
HCT-15 colon
  GI50: 0.364 µM
SK-MEL-5 melanoma
  GI50: 0.157 µM
  TGI: 0.295 µM
HOP-92 NSCLC
  GI50: 0.368 µM
  TGI: > 20.8 µM
HOP-62 NSCLC
  GI50: 2.23 µM
  TGI: > 100 µM
MDA-MB-231 breast
  GI50: 0.298 µM
  TGI: 1.31 µM
LOX IMVI melanoma
  GI50: 0.223 µM
  TGI: 0.539 µM

## Cc1nc(N(C)C)nc(-c2cccc(-c3ccn(CCN(C)C)n3)c2)c1C
U251 CNS
  GI50: > 20 µM
  TGI: > 20 µM
OVCAR-4 ovarian
  GI50: > 20 µM
  TGI: > 20 µM
SN12C renal
  GI50: > 20 µM
  TGI: > 20 µM
K-562 leukemia
  GI50: > 20 µM
  TGI: > 20 µM
HCT-15 colon
  GI50: > 20 µM
  TGI: > 20 µM
SK-MEL-5 melanoma
  GI50: 15.9 µM
  TGI: > 20 µM
HOP-92 NSCLC
  GI50: 4.71 µM
  TGI: > 20 µM
HOP-62 NSCLC
  GI50: > 20 µM
  TGI: > 20 µM
MDA-MB-231 breast
  GI50: > 20 µM
  TGI: > 20 µM
LOX IMVI melanoma
  GI50: > 20 µM
  TGI: > 20 µM

## CN(Cc1cccc(Cl)c1)c1ccc(CO)c(Cl)c1
U251 CNS
  GI50: 4.21 µM
  TGI: 19.2 µM
OVCAR-4 ovarian
  GI50: 2.33 µM
  TGI: 16.5 µM
SN12C renal
  GI50: 14.3 µM
  TGI: 37.2 µM
K-562 leukemia
  GI50: 8.76 µM
  TGI: > 100 µM
HCT-15 colon
  GI50: 16.1 µM
  TGI: > 76.7 µM
SK-MEL-5 melanoma
  GI50: 7.47 µM
  TGI: 20.7 µM
HOP-92 NSCLC
  GI50: 3.15 µM
  TGI: 19.8 µM
HOP-62 NSCLC
  GI50: 6.77 µM
  TGI: 25.6 µM
MDA-MB-231 breast
  GI50: 17.4 µM
  TGI: 59.9 µM
LOX IMVI melanoma
  GI50: 14.2 µM
  TGI: 27.5 µM
